# Marks after values point to notes of the source that are not given here.
# Columns and labels:
# [1] = set-up: species or system Kunming mice; conditions: mouse, in vivo
# Method: Mice ascites tumor s180 cells were conventionally incubated in 1640 culture medium, at 37° C., 5% CO2, and passaged once every two days in average. The cells in the logarithmic growth phase were prepared into a single-cell suspension having a density of 3.0×10^7 cells/ml with normal saline, which was injected into the abdominal cavities of mice under sterile conditions. Seven days after inoculation, significant swelling of the abdominal cavities of mice can be seen. As this time, the mice were executed by cervical vertebra luxation, put into a beaker containing 75% ethanol and soaked for 2-3 minutes. The sterilized mice were placed into an ultraclean bench, and the abdomens were exposed. The ascites was drawn with a sterile syringe and put into a sterile reagent bottle for further use. The above ascites was counted with trypan blue, diluted with normal saline to adjust to 2.0×10^7 cells/ml, and inoculated at the right armpit of the mice with 0.2 ml for each mouse.
# The inoculated mice were randomly divided into 6 groups, with 10 animals in each group and half male and half female.
# Docetaxel and icaritin were administered by tail intravenous injection with an administration volume of 10 ml/kg for each. Tegafur, Gimeracil and Oteracil Potassium Capsules was intragastrically administered with an administration volume of 40 ml/kg. Each group was administered once a day for totally 10 days. During the test, the animals were observed every day for their food and water uptake, survival conditions and behaviors, and measured for their body weights every day. After the test was ended, the mice were anaesthetized and anatomized. Blood was collected from abdominal aorta for routine blood test, and the total number of white blood cells, the total number of platelets and the total number of neutrophils were determined.
# normal mice [2] = assay: Bleeding time in normal mice (tail tip cut); assay type: in vivo, Kunming mice; set-up: unit not given here; conditions: 2 mg/kg by injection, 3 days, 1 h after last administration
# Method: 100 Kunming mice were randomly divided into 5 groups, i.e. the blank control group (normal saline group), the icariin group (positive control group), the high-dose icaritin group, the medium-dose icaritin group, and the low-dose icaritin group. Each group was administered as follows. Blank control group: administered with the same volume of normal saline by subcutaneous injection; Icariin group: administered with 2 mg/kg of icariin by injection; High-dose icaritin group: administered with the injection of icaritin of Example 1 by subcutaneous injection at a dosage of 10 mg/kg; Medium-dose icaritin group: administered with the injection of icaritin of Example 1 by subcutaneous injection at a dosage of 5 mg/kg; Low-dose icaritin group: administered with the injection of icaritin of Example 1 by subcutaneous injection at a dosage of 1 mg/kg. Measurement of the bleeding time: The normal saline group (blank control group), the icariin group (positive control group), and the icaritin administration groups (high-, medium-, and low-dose groups) were designed as follows: 50 mice were selected, weighed, and randomly divided into 5 groups, with 10 mice in each group. The animals were administered consecutively for 3 days. At 1 h after the last administration, a filter paper was rolled to form a filter paper cartridge with a diameter similar to that of the mouse body, which was closed at one end. The mouse was allowed to climb into the cartridge. Then about 3 mm of tail tip of the mouse was cut with scissors. A stopwatch was started to record the time when the bleeding started. The tail tip of the mouse was point-contacted with a filter paper gently every 15 s until there was no blood or no blood can be seen.
# normal mice [3] = assay: Clotting time in normal mice (capillary method); assay type: in vivo, Kunming mice; set-up: unit not given here; conditions: 2 mg/kg by injection, 3 days, 1 h after last administration
# Method: 100 Kunming mice were randomly divided into 5 groups, i.e. the blank control group (normal saline group), the icariin group (positive control group), the high-dose icaritin group, the medium-dose icaritin group, and the low-dose icaritin group. Each group was administered as follows.
# Blank control group: administered with the same volume of normal saline by subcutaneous injection;
# Icariin group: administered with 2 mg/kg of icariin by injection;
# High-dose icaritin group: administered with the injection of icaritin of Example 1 by subcutaneous injection at a dosage of 10 mg/kg;
# Medium-dose icaritin group: administered with the injection of icaritin of Example 1 by subcutaneous injection at a dosage of 5 mg/kg;
# Low-dose icaritin group: administered with the injection of icaritin of Example 1 by subcutaneous injection at a dosage of 1 mg/kg.
# Measurement of the clotting time: The normal saline group (blank control group), the icariin group (positive control group), and the icaritin administration groups (high-, medium-, and low-dose groups) were designed as follows: 50 mice were selected, weighed and randomly divided into 5 groups, with 10 mice in each group. The animals were administered consecutively for 3 days. At 1 h after the last administration, blood was sampled from the venous plexus by inserting a disposable 20 μl blood collection tube into the inner canthus of the mouse to collect 20 μl of blood. A small fragment of capillary was broken off every 15 s for checking the occurrence of clotting filaments. The time from the blood sampling to the occurrence of fibrous protein filaments (clotting time) was recorded, and the results were shown in Table 5.
# chronic ITP model rats = assay: Platelet count in chronic ITP model rats (anti-rat platelet serum); assay type: in vivo, Wistar rats; conditions: 2 mg/kg sc, 1 h after last administration
# Method: Establishment of chronic ITP model: Wistar rats were selected to establish the model by injecting rabbit anti-rat platelet serum (APS). […] 50 Rats in which the model was successfully established were selected, weighed, and randomly divided into 5 groups, i.e. the model control group, the icariin group (positive control group), and the icaritin administration groups (high-, medium- and low-dose groups), with 10 rats in each group. The groups were administered with the following therapeutic agents, respectively.
# The model control group: administered by subcutaneous injection with the same volume of normal saline;
# (§1) The icariin group: administered by subcutaneous injection with 2 mg/kg of icariin;
# (§2) The high-dose icaritin group: administered by subcutaneous injection with 10 mg/kg of the icaritin injection of Example 11;
# (§3) The medium-dose icaritin group: administered by subcutaneous injection with 5 mg/kg of the icaritin injection of Example 11;
# (§4) The low-dose icaritin group: administered by subcutaneous injection with 1 mg/kg of the icaritin injection of Example 11.
# At 1 h after the last administration, blood was sampled from the venous plexus by inserting a disposable 20 μl blood collection tube into the inner canthus of the […].
# [4] = tested on: active immune thrombocytopenia mice; assay: Active immune thrombocytopenia in mice (platelets in peripheral blood); assay type: in vivo, Balb/C mice; conditions: 2 mg/kg (table), intragastric once a day, x ± s
# Method: 72 Balb/C mice were selected, weighed, and randomly divided into […] administration groups, i.e. the normal group, the model control group, the icariin group (positive control group), and the icaritin administration groups (high-, medium-, and low-dose groups), with 12 mice in each group. […] On the second day after the model was established, each group was administered with the following therapeutic agents: The normal group: administered intragastrically with the same volume of normal saline; The model control group: administered intragastrically with the same volume of normal saline; The […]: […]; The high-dose icaritin group: […] Example 9; The medium-dose icaritin group: […] Example 9; The low-dose icaritin group: […] Each of the administration groups was administered once a day and fed normally. After establishing the model three times, each administration group was continued to be administered for one week. The mice were anesthetized, and blood was sampled to measure the number of platelets and determine the effect of icaritin on the number of platelets (PLT) in the peripheral blood.
# [5] = tested on: model of thrombocytopenia induced by cyclophosphamide in mice; assay: Thrombocytopenia induced by cyclophosphamide in mice (platelets in peripheral blood); assay type: in vivo, Balb/C mice; conditions: cyclophosphamide 50 mg/kg ip model mice; 2 mg/kg sc once a day, 3 weeks; x ± s
# Method: 72 Balb/C mice were selected, weighed, and randomly divided into 6 groups, i.e. the normal group, the model control group, the icariin group (positive control group), and the icaritin administration groups (high-, medium-, and low-dose groups), with 12 mice in each group. […] One week before starting to establish the model, each group was administered with the following therapeutic agents:
# The normal group: administered subcutaneously with the same volume of normal saline;
# The model control group: administered subcutaneously with the same volume of normal saline;
# as §1, §2, §3, §4
# Each group was administered once a day and fed normally. After consecutive administration for 3 weeks, the mice were anesthetized, and blood was sampled to measure the number of platelets and determine the effect of icaritin on the number of platelets (PLT) in the peripheral blood.
# [6] = tested on: tumor-bearing mice (mice ascites tumor s180 cells); assay: Effect on chemotherapy-induced bone marrow suppression in tumor-bearing mice (routine blood test); assay type: in vivo, Kunming mice; conditions: after 10 days once daily, docetaxel 75 mg/m^2/d iv, Tegafur/Gimeracil/Oteracil capsules 222.2 mg/m^2/d intragastric, icaritin 10 mg/kg/d iv
# Method: Mice ascites tumor s180 cells were conventionally incubated in 1640 culture medium, at 37° C., 5% CO2, and passaged once every two days in average. The cells in the logarithmic growth phase were prepared into a single-cell suspension having a density of 3.0×10^7 cells/ml with normal saline, which was injected into the abdominal cavities of mice under sterile conditions. Seven days after inoculation, significant swelling of the abdominal cavities of mice can be seen. As this time, the mice were executed by cervical vertebra luxation, put into a beaker containing 75% ethanol and soaked for 2-3 minutes. The sterilized mice were placed into an ultraclean bench, and the abdomens were exposed. The ascites was drawn with a sterile syringe and put into a sterile reagent bottle for further use. The above ascites was counted with trypan blue, diluted with normal saline to adjust to 2.0×10^7 cells/ml, and inoculated at the right armpit of the mice with 0.2 ml for each mouse. The inoculated mice were randomly divided into 6 groups, with 10 animals in each group and half male and half female. Group 1, the model control group: the test animals were intraperitoneally injected with0.9% normal saline (same for the following experiments); Group 2, the docetaxel group: 75 mg/m^2/d of docetaxel; Group 3, the Tegafur, Gimeracil and Oteracil Potassium Capsules group: 222.2 mg/m^2/d of Tegafur, Gimeracil and Oteracil Potassium Capsules; Group 4, the icaritin group: 10 mg/kg/d of the icaritin microemulsion formulation; Group 5, the D+I group (docetaxel+icaritin group): 75 mg/m^2/d of docetaxel+[…] of icaritin; Group 6, the T +I group (Tegafur, Gimeracil and Oteracil Potassium Capsules+icaritin group): 222.2 mg/m^2/d of Tegafur, Gimeracil and Oteracil Potassium Capsules+10 mg/kg/d of icaritin. Docetaxel and icaritin were administered by tail intravenous injection with an administration volume of 10 ml/kg for each. Tegafur, Gimeracil and Oteracil Potassium Capsules was intragastrically administered with an administration volume of 40 ml/kg. Each group was administered once a day for totally 10 days. During the test, the animals were observed every day for their food and water uptake, survival conditions and behaviors, and measured for their body weights every day. After the test was ended, the mice were anaesthetized and anatomized. Blood was collected from abdominal aorta for routine blood test, and the total number of white blood cells, the total number of platelets and the total number of neutrophils were determined.
Compound,Body weight Before Administration [1] [g],Bleeding Time (normal mice [2]),Clotting Time (normal mice [3]),Platelet count (chronic ITP model rats),PLT [4],PLT [5],Neutrophils [6],Platelets [6],White blood cells [6]
"Tegafur, Gimeracil and Oteracil Potassium Capsules",21.3 ± 2.3,–,–,–,–,–,–,–,–
"COc1ccc(-c2oc3c(CC=C(C)C)c(O[C@@H]4O[C@H](CO)[C@@H](O)[C@H](O)[C@H]4O)cc(O)c3c(=O)c2O[C@@H]2O[C@@H](C)[C@H](O)[C@@H](O)[C@H]2O)cc1 [Icariin, reference compound]",–,4.03 ± 0.45,4.28 ± 0.61,571.8 ± 60.6 ×10^9,850.6 ± 90.1** 10^9/L,550.6 ± 90.1** 10^9/L,–,–,–
"CC(=O)O[C@@]12CO[C@@H]1C[C@H](O)[C@@]1(C)C(=O)[C@H](O)C3=C(C)[C@@H](OC(=O)[C@H](O)[C@@H](NC(=O)OC(C)(C)C)c4ccccc4)C[C@@](O)([C@@H](OC(=O)c4ccccc4)[C@H]21)C3(C)C [Docetaxel, reference compound]",21.2 ± 1.8,–,–,–,–,–,0.670 ± 0.12 10^9/L,450.6 ± 30.5 10^9/L,2.773 ± 0.46 10^9/L
